22 compounds from ChEMBL document CHEMBL3085746, “Discovery of novel PTP1B inhibitors via pharmacophore-oriented scaffold hopping from Ertiprotafib” (Bioorg Med Chem Lett, 2013) can be followed below.

Molecules are shown by their SMILES.

As usually defined, the inhibition is the drop in the measured response relative to a control, in per cent. As usually defined, the IC50 is the concentration that inhibits the measured activity by half.

Test [1] has as its target T1, Tyrosine-protein phosphatase non-receptor type 1 (Homo sapiens) (UniProt P18031).
T1 sequence (whole entry): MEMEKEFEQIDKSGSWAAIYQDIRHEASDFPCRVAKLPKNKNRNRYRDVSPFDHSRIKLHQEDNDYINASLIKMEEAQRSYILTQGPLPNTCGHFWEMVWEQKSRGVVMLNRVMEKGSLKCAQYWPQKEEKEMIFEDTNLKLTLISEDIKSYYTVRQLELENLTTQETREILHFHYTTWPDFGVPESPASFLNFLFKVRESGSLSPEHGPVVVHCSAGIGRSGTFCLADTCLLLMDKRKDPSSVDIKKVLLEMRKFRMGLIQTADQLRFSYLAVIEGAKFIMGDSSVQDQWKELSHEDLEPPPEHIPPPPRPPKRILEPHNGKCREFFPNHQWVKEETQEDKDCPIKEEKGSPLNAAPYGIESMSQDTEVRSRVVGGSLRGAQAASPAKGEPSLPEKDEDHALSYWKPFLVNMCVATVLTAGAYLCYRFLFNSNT
Description: Inhibition of GST-tagged recombinant human PTP1B at 100 uM.

Test [2] concerns the target T2, Tyrosine-protein phosphatase non-receptor type 1 (Homo sapiens, UniProt P18031).
T2 sequence (P18031 whole entry): T1 sequence (whole entry)
Description: Inhibition of GST-tagged recombinant human PTP1B.

As for `O=C(O)CN(Cc1ccccc1)Cc1ccc(-n2c3ccccc3c3ccccc32)cc1`, the inhibition in test [1] worked out at 67.3%.

In the case of `O=C(O)[C@@H](Cc1ccccc1)Oc1c(Br)cc(-c2c3ccccc3c(Br)c3oc4ccccc4c23)cc1Br`, in test [2], the concentration for half-maximal inhibition (IC50) was determined as 0.87 µM. In test [1], the inhibition was 100%.

For `COc1ccc(N(Cc2ccc(O[C@H](Cc3ccccc3)C(=O)O)cc2)C(=O)c2ccc3c(c2)OCO3)cc1`, the inhibition in test [1] is under 40%.

Take `O=C(O)[C@@H](Cc1ccccc1)Oc1ccc(C(=O)N(Cc2ccc3c(c2)OCO3)c2ccc(F)cc2)cc1`: the inhibition in test [1] is under 40%.

In the case of `O=C(N[C@H](Cc1ccccc1)C(=O)O)c1ccc(CN(Cc2ccccc2)c2ccccc2)cc1`, the IC50 in test [2] came to 3.9 µM. The inhibition in test [1] is 113%.

With `O=C(O)CC(CC(=O)c1ccccc1)c1ccc(-n2c3ccccc3c3ccccc32)cc1` (stereo not given), the IC50 in test [2] was 10.2 µM. For the same compound, the inhibition in test [1] is 106%.

In the case of `COc1ccc(N(Cc2ccc(C(=O)N[C@H](Cc3ccccc3)C(=O)O)cc2)Cc2ccc3c(c2)OCO3)cc1`, the inhibition in test [1] turned out to be 100%.

`O=C(O)CN(C(=O)Cc1ccccc1)c1ccc(CN(Cc2ccc3c(c2)OCO3)c2ccc(F)cc2)cc1`: the IC50 in test [2] was 1.3 µM. Moreover, the inhibition in test [1] was found to be 96.4%.

On to `COc1ccc(N(Cc2ccc3c(c2)OCO3)C(=O)c2ccc(CN(CC(=O)O)Cc3ccccc3)cc2)cc1`, for which the inhibition in test [1] is under 40%.

With `O=C(O)CC(CC(=O)c1ccccc1)c1ccc(OC(c2ccccc2)c2ccccc2)cc1` (stereo not given), in test [1], the inhibition amounted to 61%.

In the case of `O=C(O)CC(CC(=O)c1ccccc1)c1ccc(Cn2c3ccccc3c3ccccc32)cc1` (stereo not given), the half-maximal inhibitory concentration (IC50) in test [2] was 10 µM. Besides, in test [1], the inhibition was found to be 98%.

Take `O=C(O)[C@@H](Cc1ccccc1)Oc1ccc(CN(Cc2ccc3c(c2)OCO3)c2ccc(F)cc2)cc1`: the IC50 in test [2] came to 10.4 µM. Further, the inhibition in test [1] was found to be 112%.

Regarding `COc1ccc(N(Cc2ccc3c(c2)OCO3)C(=O)c2ccc(C(CC(=O)O)CC(=O)c3ccccc3)cc2)cc1` (stereo not given), the inhibition in test [1] was under 40%.

On to `O=C(O)CC(CC(=O)c1ccccc1)c1ccc(CN(Cc2ccc3c(c2)OCO3)c2ccc(F)cc2)cc1` (stereo not given), for which the inhibition in test [1] was determined as 59.1%.

With `O=C(O)[C@@H](Cc1ccccc1)Oc1ccc(-n2c3ccccc3c3ccccc32)cc1`, in test [2], the IC50 stood at 40.3 µM. In addition, the inhibition in test [1] worked out at 98.4%.

For the compound `O=C(N[C@H](Cc1ccccc1)C(=O)O)c1ccc(Cn2c3ccccc3c3ccccc32)cc1`, the inhibition in test [1] was 51.8%.

Take `O=C(N[C@H](Cc1ccccc1)C(=O)O)c1ccc(Cn2c(Cc3ccccc3)nc3ccccc32)cc1`: in test [1], the inhibition was 53.4%.

In the case of `O=C(N[C@H](Cc1ccccc1)C(=O)O)c1ccc(C(=O)N(Cc2ccccc2)Cc2ccccc2)cc1`, the inhibition in test [1] is under 40%.

Take `O=C(O)CN(Cc1ccccc1)c1ccc(CN(Cc2ccc3c(c2)OCO3)c2ccc(F)cc2)cc1`: the inhibition in test [1] came out at 44.3%.

As for `COc1ccc(N(Cc2ccc(O[C@H](Cc3ccccc3)C(=O)O)cc2)C(=O)c2ccc(C(=O)O)cc2)cc1`, in test [1], the inhibition was under 40%.

In the case of `O=C(N[C@H](Cc1ccccc1)C(=O)O)c1ccc(CN(Cc2ccccc2)Cc2ccccc2)cc1`, the concentration for half-maximal inhibition (IC50) in test [2] was determined as 23.9 µM. For the same compound, the inhibition in test [1] was determined as 95%.

With `O=C(N[C@H](Cc1ccccc1)C(=O)O)c1ccc(CN(c2ccccc2)c2ccccc2)cc1`, the inhibition in test [1] was 83.8%.
